Experimental findings from the supplement of paper PMC11451515 are described below.

Common to all, as to assay: AUC of viability dose-response curve (% viability x log10 dose units); higher = less sensitive
Settings in all cases: 48 h

In one experiment the test system is P12-Ichikawa. Put shortly:
(§1)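 Over 48 h at 37°C, leukemia cells in 1536-well plates (500 or 1000 cells/well), adapted to each medium, received library compounds in DMSO at 11 threefold doses from 47 μM to 0.79 nM. CellTiter-Glo One luminescence, normalised per plate to DMSO and cell-free wells, was fitted by a four-parameter log-logistic function of log10 dose. The area under the curve was then integrated by trapezoidal rule, after scaling curves above full viability and removing those that failed quality control.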

The next experiment relates to NOMO1. Put shortly: as §1
The next experiment relates to SEM cells. Put shortly: as §1
The mark [1] stands for this setting: RPMI 5 mM glucose + 10% dialyzed FBS.

Take `CCOP(=O)(OCC)C(C)NC(=O)N(CCCl)N=O` (stereo unspecified): the “AUC of viability dose-response curve” value with P12-Ichikawa (HPLM + 10% dialyzed FBS) worked out at 431; with P12-Ichikawa (RPMI 5 mM glucose + 10% FBS), 453; with P12-Ichikawa (setting [1]), 436; in the experiment with NOMO1 (HPLM + 10% dialyzed FBS) it was 441; with NOMO1 (RPMI 5 mM glucose + 10% FBS), 402; in the experiment on NOMO1 (setting [1]), 466. In addition, the “AUC of viability dose-response curve” value in the experiment with SEM cells (HPLM + 10% dialyzed FBS) came to 470; in the experiment on SEM cells (RPMI 5 mM glucose + 10% FBS), 447; in the experiment on SEM cells (setting [1]), 461.
Regarding `CC(C)(Cc1ccc2ccccc2c1)NC[C@@H](O)COc1cccc(Cl)c1C#N`, the “AUC of viability dose-response curve” value with P12-Ichikawa (HPLM + 10% dialyzed FBS) came out at 453; with P12-Ichikawa (RPMI 5 mM glucose + 10% FBS), 449; with P12-Ichikawa (setting [1]), 451; in the experiment with NOMO1 (HPLM + 10% dialyzed FBS), 458; in the experiment on NOMO1 (RPMI 5 mM glucose + 10% FBS), 455; in the experiment with NOMO1 (setting [1]) it was 451. Further, the results for the “AUC of viability dose-response curve” value in the experiment on SEM cells (HPLM + 10% dialyzed FBS), in the experiment on SEM cells (RPMI 5 mM glucose + 10% FBS) and in the experiment on SEM cells (setting [1]) were 448, 466 and 438, respectively.
Turning to `CN[C@@H](C)C(=O)N[C@H]1CCCC[C@H]2CC[C@@H](C(=O)N[C@@H](c3ccccc3)c3cn(CCCCc4ccc(CCCCn5cc([C@@H](NC(=O)[C@@H]6CC[C@@H]7CCCC[C@H](NC(=O)[C@H](C)NC)C(=O)N76)c6ccccc6)nn5)cc4)nn3)N2C1=O`, the “AUC of viability dose-response curve” value in the experiment on P12-Ichikawa (HPLM + 10% dialyzed FBS) turned out to be 465; in the experiment on P12-Ichikawa (RPMI 5 mM glucose + 10% FBS), 471; in the experiment on P12-Ichikawa (setting [1]) it was 450; in the experiment on NOMO1 (HPLM + 10% dialyzed FBS) it was 250; in the experiment with NOMO1 (RPMI 5 mM glucose + 10% FBS) it was 325; in the experiment on NOMO1 (setting [1]), 297. Moreover, the “AUC of viability dose-response curve” value in the experiment on SEM cells (HPLM + 10% dialyzed FBS) is 431; in the experiment on SEM cells (RPMI 5 mM glucose + 10% FBS) it was 417; in the experiment on SEM cells (setting [1]) it was 418.
On to `CC(=O)SCC(Cc1ccccc1)C(=O)NCC(=O)OCc1ccccc1` (stereo unspecified), for which the “AUC of viability dose-response curve” value in the experiment on P12-Ichikawa (HPLM + 10% dialyzed FBS) was determined as 439; with P12-Ichikawa (RPMI 5 mM glucose + 10% FBS), 445; in the experiment on P12-Ichikawa (setting [1]), 418; in the experiment with NOMO1 (HPLM + 10% dialyzed FBS) it was 390; in the experiment on NOMO1 (RPMI 5 mM glucose + 10% FBS), 358; with NOMO1 (setting [1]), 351. Further, the “AUC of viability dose-response curve” value with SEM cells (HPLM + 10% dialyzed FBS) stood at 451; with SEM cells (RPMI 5 mM glucose + 10% FBS), 443; with SEM cells (setting [1]), 442.
As for `COc1ccc([C@@H]2CNC(=O)C2)cc1OC1CCCC1`, the “AUC of viability dose-response curve” value with P12-Ichikawa (HPLM + 10% dialyzed FBS) was determined as 466; with P12-Ichikawa (RPMI 5 mM glucose + 10% FBS) it was 456; in the experiment with P12-Ichikawa (setting [1]) it was 458; in the experiment with NOMO1 (HPLM + 10% dialyzed FBS), 452; in the experiment on NOMO1 (RPMI 5 mM glucose + 10% FBS), 467; with NOMO1 (setting [1]), 468. Further, the entries for the “AUC of viability dose-response curve” value in the experiment on SEM cells (HPLM + 10% dialyzed FBS), in the experiment with SEM cells (RPMI 5 mM glucose + 10% FBS) and in the experiment on SEM cells (setting [1]) were 454, 458 and 459, respectively.
Take `C[C@@]12OC(=O)[C@@]1(NC(=O)[C@@H]2CCCl)[C@@H](O)[C@H]\3CCC\C=C3`: the “AUC of viability dose-response curve” value with P12-Ichikawa (HPLM + 10% dialyzed FBS) came out at 256; in the experiment on P12-Ichikawa (RPMI 5 mM glucose + 10% FBS) it was 253; with P12-Ichikawa (setting [1]), 247; in the experiment on NOMO1 (HPLM + 10% dialyzed FBS), 243; in the experiment on NOMO1 (RPMI 5 mM glucose + 10% FBS), 254; with NOMO1 (setting [1]) it was 254. The “AUC of viability dose-response curve” value turned out to be 183 in the experiment on SEM cells (HPLM + 10% dialyzed FBS), 182 with SEM cells (RPMI 5 mM glucose + 10% FBS) and 177 in the experiment with SEM cells (setting [1]).
Take `CO[C@@H]1[C@H](N(C)C(=O)c2ccccc2)C[C@H]2O[C@]1(C)n1c3ccccc3c3c4c(c5c6ccccc6n2c5c31)C(=O)NC4`: the “AUC of viability dose-response curve” value with P12-Ichikawa (HPLM + 10% dialyzed FBS) turned out to be 373; in the experiment with P12-Ichikawa (RPMI 5 mM glucose + 10% FBS) it was 380; in the experiment on P12-Ichikawa (setting [1]), 386; in the experiment with NOMO1 (HPLM + 10% dialyzed FBS), 415; with NOMO1 (RPMI 5 mM glucose + 10% FBS), 424; with NOMO1 (setting [1]), 412. The entries for the “AUC of viability dose-response curve” value with SEM cells (HPLM + 10% dialyzed FBS), in the experiment on SEM cells (RPMI 5 mM glucose + 10% FBS) and with SEM cells (setting [1]) were 313, 308 and 305, respectively.
Take `C[C@@H]1CN(CC(=O)N2CC(C)(C)c3ncc(Cc4ccc(F)cc4)cc32)[C@@H](CN2CCOC[C@H]2C)CN1`: the “AUC of viability dose-response curve” value with P12-Ichikawa (HPLM + 10% dialyzed FBS) is 463; with P12-Ichikawa (RPMI 5 mM glucose + 10% FBS) it was 449; in the experiment on P12-Ichikawa (setting [1]), 477; in the experiment on NOMO1 (HPLM + 10% dialyzed FBS) it was 442; in the experiment with NOMO1 (RPMI 5 mM glucose + 10% FBS), 456; in the experiment with NOMO1 (setting [1]) it was 459. In addition, the “AUC of viability dose-response curve” value with SEM cells (HPLM + 10% dialyzed FBS) was found to be 448; in the experiment with SEM cells (RPMI 5 mM glucose + 10% FBS), 402; with SEM cells (setting [1]), 465.
As to `CC1(C)CC(=O)c2c(C(F)(F)F)nn(-c3ccc(C(N)=O)c(NC4CCC(OC(=O)CN)CC4)c3)c2C1` (stereo unspecified), the “AUC of viability dose-response curve” value came to 346 with P12-Ichikawa (HPLM + 10% dialyzed FBS); 297 in the experiment with P12-Ichikawa (RPMI 5 mM glucose + 10% FBS); 308 with P12-Ichikawa (setting [1]); 292 in the experiment on NOMO1 (HPLM + 10% dialyzed FBS); 273 in the experiment with NOMO1 (RPMI 5 mM glucose + 10% FBS); 281 with NOMO1 (setting [1]). Moreover, the figures for the “AUC of viability dose-response curve” value with SEM cells (HPLM + 10% dialyzed FBS), with SEM cells (RPMI 5 mM glucose + 10% FBS) and with SEM cells (setting [1]) were 288, 290 and 276, respectively.
For the molecule `Nc1cccc(-c2cc3c(Oc4cccc(O)c4)ncnc3[nH]2)c1`, the “AUC of viability dose-response curve” value turned out to be 423 with P12-Ichikawa (HPLM + 10% dialyzed FBS); 431 in the experiment on P12-Ichikawa (RPMI 5 mM glucose + 10% FBS); 436 in the experiment on P12-Ichikawa (setting [1]); 445 with NOMO1 (HPLM + 10% dialyzed FBS); 463 in the experiment on NOMO1 (RPMI 5 mM glucose + 10% FBS); 460 in the experiment on NOMO1 (setting [1]). The “AUC of viability dose-response curve” value stood at 414 in the experiment on SEM cells (HPLM + 10% dialyzed FBS), 415 in the experiment with SEM cells (RPMI 5 mM glucose + 10% FBS) and 414 in the experiment with SEM cells (setting [1]).
Turning to `CN(C)CCC=C1C2=C(C=CC=C2)\C=C/C3=C1C=CC=C3`, the “AUC of viability dose-response curve” value with P12-Ichikawa (HPLM + 10% dialyzed FBS) was 449; in the experiment on P12-Ichikawa (RPMI 5 mM glucose + 10% FBS), 401; with P12-Ichikawa (setting [1]) it was 469; in the experiment on NOMO1 (HPLM + 10% dialyzed FBS), 418; with NOMO1 (RPMI 5 mM glucose + 10% FBS), 440; with NOMO1 (setting [1]), 438. Moreover, the entries for the “AUC of viability dose-response curve” value in the experiment on SEM cells (HPLM + 10% dialyzed FBS), in the experiment with SEM cells (RPMI 5 mM glucose + 10% FBS) and with SEM cells (setting [1]) were 459, 438 and 466, respectively.
Turning to `O=C(NC1CC1)c1cccc(-c2ccc3c(NC(=O)C4CC4)n[nH]c3c2)c1`, the “AUC of viability dose-response curve” value with P12-Ichikawa (HPLM + 10% dialyzed FBS) was 418; in the experiment on P12-Ichikawa (RPMI 5 mM glucose + 10% FBS), 419; with P12-Ichikawa (setting [1]), 426; in the experiment with NOMO1 (HPLM + 10% dialyzed FBS), 450; with NOMO1 (RPMI 5 mM glucose + 10% FBS) it was 448; in the experiment on NOMO1 (setting [1]) it was 451. The figures for the “AUC of viability dose-response curve” value in the experiment with SEM cells (HPLM + 10% dialyzed FBS), in the experiment with SEM cells (RPMI 5 mM glucose + 10% FBS) and with SEM cells (setting [1]) were 430, 425 and 422, respectively.
For `CCOC(=O)c1ncn2c1CN(C)C(=O)c1cc(F)ccc1-2`, the “AUC of viability dose-response curve” value came out at 427 in the experiment on P12-Ichikawa (HPLM + 10% dialyzed FBS); 432 with P12-Ichikawa (RPMI 5 mM glucose + 10% FBS); 424 in the experiment on P12-Ichikawa (setting [1]); 433 in the experiment with NOMO1 (HPLM + 10% dialyzed FBS); 432 in the experiment on NOMO1 (RPMI 5 mM glucose + 10% FBS); 465 in the experiment with NOMO1 (setting [1]). In addition, the “AUC of viability dose-response curve” value with SEM cells (HPLM + 10% dialyzed FBS) worked out at 421; with SEM cells (RPMI 5 mM glucose + 10% FBS), 420; with SEM cells (setting [1]), 422.
As for `CC1=CC2=C(O1)C(=C3OC(=O)\C=C(C)/C3=C2)C`, the “AUC of viability dose-response curve” value with P12-Ichikawa (HPLM + 10% dialyzed FBS) is 468; in the experiment on P12-Ichikawa (RPMI 5 mM glucose + 10% FBS), 469; in the experiment on P12-Ichikawa (setting [1]), 468; in the experiment on NOMO1 (HPLM + 10% dialyzed FBS) it was 446; with NOMO1 (RPMI 5 mM glucose + 10% FBS) it was 466; in the experiment with NOMO1 (setting [1]), 451. The “AUC of viability dose-response curve” value with SEM cells (HPLM + 10% dialyzed FBS) was 404; in the experiment with SEM cells (RPMI 5 mM glucose + 10% FBS), 453; with SEM cells (setting [1]), 447.
